From paper PMC8812735, “Discovery of triterpenoids as potent dual inhibitors of pancreatic lipase and human carboxylesterase 1” (Journal of Enzyme Inhibition and Medicinal Chemistry, 2022)
Like-named read-outs stand apart in the source and are kept apart here.

Key:
Format in all cases: biochemical
hCES2A = target: T1, hCES2A (Homo sapiens, UniProt O00748); assay: Inhibition of hCES2A-mediated FD hydrolysis
T1 sequence (O00748 27-559): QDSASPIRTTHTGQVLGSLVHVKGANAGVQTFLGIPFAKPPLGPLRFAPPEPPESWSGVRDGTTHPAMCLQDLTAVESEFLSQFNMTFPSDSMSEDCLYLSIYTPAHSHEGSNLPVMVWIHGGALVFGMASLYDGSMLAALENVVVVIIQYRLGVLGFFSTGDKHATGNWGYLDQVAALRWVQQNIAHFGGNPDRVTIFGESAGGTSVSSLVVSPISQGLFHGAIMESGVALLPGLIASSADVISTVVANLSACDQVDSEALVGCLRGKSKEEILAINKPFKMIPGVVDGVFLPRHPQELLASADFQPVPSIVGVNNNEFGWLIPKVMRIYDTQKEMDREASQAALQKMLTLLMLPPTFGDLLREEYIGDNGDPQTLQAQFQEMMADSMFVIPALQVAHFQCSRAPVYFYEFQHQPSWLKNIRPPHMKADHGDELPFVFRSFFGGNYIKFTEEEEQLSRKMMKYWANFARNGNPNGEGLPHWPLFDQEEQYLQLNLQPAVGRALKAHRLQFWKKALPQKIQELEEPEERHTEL
From the text: […] (FD) was used as the hCES2A specific probe substrate to assay the inhibitory effect of natural triterpenoids on hCES2A. The entire detailed operation process refers to the previously reported method, and finally the FD mixture was put into the multi-mode microplate reader for analysis and detection.

hCES1A = target: T2, hCES1A (Homo sapiens, UniProt P23141); assay: Inhibition of hCES1A-mediated NLMe hydrolysis in human liver microsomes
T2 construct: tissue Bioreclamation IVT lot No. X008067; host or cells: pooled human liver microsomes from 50 donors
T2 sequence (P23141 18-567): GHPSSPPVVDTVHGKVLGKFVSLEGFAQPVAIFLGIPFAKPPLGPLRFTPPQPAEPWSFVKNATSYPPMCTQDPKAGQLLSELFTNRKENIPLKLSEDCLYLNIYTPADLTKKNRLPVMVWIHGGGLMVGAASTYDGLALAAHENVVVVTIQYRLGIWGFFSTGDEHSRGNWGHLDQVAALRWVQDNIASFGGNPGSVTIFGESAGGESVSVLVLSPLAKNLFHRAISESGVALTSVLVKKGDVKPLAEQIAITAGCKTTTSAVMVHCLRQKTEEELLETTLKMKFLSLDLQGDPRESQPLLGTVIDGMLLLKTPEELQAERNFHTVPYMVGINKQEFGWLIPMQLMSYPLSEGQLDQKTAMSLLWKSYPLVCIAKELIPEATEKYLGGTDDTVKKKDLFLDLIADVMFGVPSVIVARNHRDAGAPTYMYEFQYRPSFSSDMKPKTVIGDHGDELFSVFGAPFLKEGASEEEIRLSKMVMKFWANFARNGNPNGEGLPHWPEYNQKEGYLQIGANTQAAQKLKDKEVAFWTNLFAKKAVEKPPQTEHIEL
Experimental: N-Alkylated D-luciferin methyl ester (NLMe), a Specific probe for hCES1A[45], was used for assessing the inhibitory effects for triterpenoids, and BNPP was used as a positive inhibitor of hCES1A. […] Then NLMe (2 µL, 0.15 mM) was added to start the reaction. After shaking the reaction in 37 °C incubator for 10 min, 50 µL of reaction solution was removed and mixed with LDR (50 µL) to terminate the reaction. A multi-mode microplate reader was used to detect the luminescence signal of NL (the hydrolysed metabolite of NLMe). The luminescence product of NL was measured at 580 nm (gain: 140). The final volume ratio of DMSO was less than 1% (V/V).
(§1) Subsequently, various concentrations of substrates (selected according to Km) and different concentrations of inhibitors were used to determine the corresponding reaction rate, and the second slope graph of the Lineweaver–Burk diagram was used as a function of the inhibitor to calculate the corresponding inhibition constant (Ki) value. All kinetic data were fitted by the following kinetic equations (a–c), for competitive (a), non-competitive (b) and mixed inhibition (c): (a) V=(VmaxS)/[Km(1+I/Ki)+S] (b) V=(VmaxS)/[(Km+S)×(1+I/Ki)] (c) V=(VmaxS)/[(Km+S)×(1+I/αKi)] where V is the hydrolytic velocity of the reaction, Vmax is the maximum velocity. S and I are substrate (4-MUO, NLMe) and inhibitor (compound 39/41) concentrations, respectively. Ki is the inhibition constant of the tested inhibitor against the target PL and hCES1A; Km is the Michaelis constant (the substrate concentration at half of the Vmax).
All measurements were made in triplicate and the data obtained in the experiment were shown as mean ± SD. The IC50 and Ki values of the compounds with strong inhibitory effect were evaluated by nonlinear regression with graphpad prism 7.0 software (GraphPad Software, Inc., La Jolla, CA).

Pancreatic lipase (PL) = target: T3, Pancreatic lipase (PL) (Sus scrofa, UniProt P00591); assay: Inhibition of PL-mediated 4-MUO hydrolysis; settings: 4-MUO substrate, mean ± SD (n = 3)
T3 construct: purchased Sigma Aldrich type II, Lot.SLBN9099V
T3 sequence (P00591 1-450): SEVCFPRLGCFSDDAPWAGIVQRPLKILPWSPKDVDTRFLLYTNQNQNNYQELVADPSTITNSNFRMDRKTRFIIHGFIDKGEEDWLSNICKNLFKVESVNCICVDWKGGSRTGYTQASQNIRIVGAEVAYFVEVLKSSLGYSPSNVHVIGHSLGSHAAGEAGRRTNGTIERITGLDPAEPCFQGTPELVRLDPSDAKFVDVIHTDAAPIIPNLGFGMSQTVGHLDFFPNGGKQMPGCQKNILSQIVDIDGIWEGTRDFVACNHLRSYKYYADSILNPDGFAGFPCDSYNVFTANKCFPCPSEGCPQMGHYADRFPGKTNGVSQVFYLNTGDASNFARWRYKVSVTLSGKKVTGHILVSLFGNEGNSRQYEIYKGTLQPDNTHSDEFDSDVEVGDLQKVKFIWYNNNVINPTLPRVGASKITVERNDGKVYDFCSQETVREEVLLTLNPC
Experimental: In addition, the background fluorescence in the absence of an enzyme source (PL) (add the same amount of citrate-Na2HPO4 buffer) was measured. […] Then start the reaction by adding 2 µL of 4-MUO probe (3 µM, final concentration). The fluorescence signal of 4-MU (hydrolytic metabolite) was detected by multi-mode microplate reader (SpectraMax M4, Molecular Devices, Urstein, Austria) with continuous oscillation for 20 min and recorded and analysed at 60 s intervals. The excitation wavelength and emission wavelength of 4-MU were set at 340 nm and 460 nm, respectively, and the gain value was 500.
as §1
All measurements were made in triplicate and the data obtained in the experiment were shown as mean ± SD.

[1] = NLMe substrate, HLM, mean ± SD (n = 3), read-out: IC50 (µM) hCES1A

SMILES	IC50 (Pancreatic lipase (PL)) [µM]	IC50 (hCES2A; FD substrate, mean ± SD (n = 3), read-out: IC50 (µM) hCES2A) [µM]	IC50 (hCES1A; [1]) [µM]	IC50 (hCES2A) [µM]	IC50 (hCES1A) [µM]
C[C@H]1[C@H](C)CC[C@]2(C(=O)O)CC[C@]3(C)C(=CC[C@@H]4[C@@]5(C)C[C@@H](O)[C@H](O)[C@@](C)(CO)[C@@H]5CC[C@]43C)[C@H]12 [Compound 7, asiatic acid]	12.9 ± 1.87			65.1 ± 6.41	0.17 ± 0.02
CC1(C)CC[C@]2(C(=O)O)CC[C@]3(C)C(=CC[C@@H]4[C@@]5(C)C[C@@H](O)[C@H](O)C(C)(C)[C@@H]5CC[C@]43C)[C@@H]2C1 [Compound 2, maslinic acid]	16 ± 4.59				0.12 ± 0.01
CC1=C(O)C(=O)C=C2C1=CC=C1[C@@]2(C)CC[C@@]2(C)[C@@H]3C[C@](C)(C(=O)O)CC[C@]3(C)CC[C@]12C [Compound 11, Celastrol]	4.69 ± 0.37				14.3 ± 3.03
O=[N+]([O-])c1ccc(OP(=O)(O)Oc2ccc([N+](=O)[O-])cc2)cc1 [Compound 29, Bis-p-nitrophenyl phosphate, reference compound]	> 100		0.36 ± 0.03		
COC(=O)C12CCC(C)(C)CC1C1=CCC3C4(C)CCC(O)C(C)(C)C4CCC3(C)C1(C)CC2 (centres unmarked) [Compound 36]	30.6 ± 3.58		0.856 ± 0.15		
CC1CCC2(C(=O)O)CCC3(C)C(=CCC4C5(C)CCC(OC(=O)CCC(=O)O)C(C)(C)C5CCC43C)C2C1C (centres unmarked) [Compound 42]	20.9 ± 1.78				0.028 ± 0.003
C=C(C)[C@@H]1CC[C@]2(CO)CC[C@]3(C)[C@H](CC[C@@H]4[C@@]5(C)CC[C@H](O)C(C)(C)[C@@H]5CC[C@]43C)[C@@H]12 [Compound 12, betulin]	7.47 ± 1.68				> 100
C[C@H]1[C@H](C)CC[C@]2(C)CC[C@]3(C)C(=CC[C@@H]4[C@@]5(C)CC[C@@H](O)[C@](C)(C(=O)O)[C@@H]5CC[C@]43C)[C@H]12 [Compound 8, β-Boswellic acid]	0.42 ± 0.05		> 100		
CC(=O)OC1CCC2(C)C(CCC3(C)C2CC=C2C4CC(C)(C)CCC4(C(=O)O)CCC23C)C1(C)C (centres unmarked) [Compound 31]	3.67 ± 0.72				0.051 ± 0.005

Continued, in another order:

IC50 (Pancreatic lipase (PL)) [µM]	IC50 (hCES2A; FD substrate, mean ± SD (n = 3), read-out: IC50 (µM) hCES2A) [µM]	IC50 (hCES1A; [1]) [µM]	SMILES	IC50 (hCES2A) [µM]	IC50 (hCES1A) [µM]
13 ± 2.03	9.22 ± 1.43	0.04 ± 0.004	CC1(C)CC[C@]2(C(=O)O)CC[C@]3(C)C(=CC[C@@H]4[C@@]5(C)CC[C@H](O)[C@@](C)(CO)[C@@H]5CC[C@]43C)[C@@H]2C1 [Compound 3, hederagenin]		
5.21 ± 1.24		0.032 ± 0.003	CC1CCC2(C(=O)O)CCC3(C)C(=CCC4C5(C)C=C(O)C(=O)C(C)(C)C5CCC43C)C2C1C (centres unmarked) [Compound 43]		
7.02 ± 0.59		0.11 ± 0.013	CC(=O)OC1CCC2(C)C(CCC3(C)C2CC=C2C4CC(C)(C)CCC4(C(N)=O)CCC23C)C1(C)C (centres unmarked) [Compound 32]		
8.63 ± 0.84		0.04 ± 0.003	CC1(C)CC[C@]2(C(=O)O)CC[C@]3(C)C(=CC[C@@H]4[C@@]5(C)CC[C@H](O)C(C)(C)[C@@H]5CC[C@]43C)[C@@H]2C1 [Compound 1, oleanolic acid]		
> 100		0.24 ± 0.049	CCCC(=O)OC1CCC2(C)C(CCC3(C)C2CC=C2C4CC(C)(C)CCC4(C(=O)O)CCC23C)C1(C)C (centres unmarked) [Compound 34]		
36.4 ± 5.17		0.043 ± 0.003	CC1(C)CCC2(C(=O)O)CCC3(C)C(=CCC4C5(C)CCC(OC(=O)CCC(=O)O)C(C)(C)C5CCC43C)C2C1 (centres unmarked) [Compound 33]		
